Literature values as cited in article PMC8592027, “Structure-Guided Design of D-Galactal Derivatives with High Affinity and Selectivity for the Galectin-8 N-Terminal Domain” (ACS Medicinal Chemistry Letters, 2021).

Key:
Conditions in all cases: cited from earlier work
[1] = target: T1, galectin-9C (C-terminal domain) (Homo sapiens, UniProt O00182)
T1 construct: galectins (N = N-terminal domain, C = C-terminal domain); made in house

galectin-2 = target: T2, galectin-2 (Homo sapiens, UniProt P05162); design: method as in PMID 30117507, PMID 15889175, doi:10.1139/cjc-2015-0598
T2 sequence (P05162 1-132): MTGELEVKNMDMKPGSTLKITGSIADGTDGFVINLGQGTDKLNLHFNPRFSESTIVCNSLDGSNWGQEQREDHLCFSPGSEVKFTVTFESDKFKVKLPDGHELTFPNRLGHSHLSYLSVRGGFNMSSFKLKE

[2] = target: T3, galectin-9N (N-terminal domain) (Homo sapiens, UniProt O00182)
T3 construct: galectins (N = N-terminal domain, C = C-terminal domain); made in house
T3 sequence (O00182 17-148 limits assumed): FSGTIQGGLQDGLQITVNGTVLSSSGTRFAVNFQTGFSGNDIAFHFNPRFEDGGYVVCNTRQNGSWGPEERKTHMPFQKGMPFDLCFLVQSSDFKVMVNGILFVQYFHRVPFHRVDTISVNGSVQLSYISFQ

T1 sequence (O00182 227-355 limits assumed): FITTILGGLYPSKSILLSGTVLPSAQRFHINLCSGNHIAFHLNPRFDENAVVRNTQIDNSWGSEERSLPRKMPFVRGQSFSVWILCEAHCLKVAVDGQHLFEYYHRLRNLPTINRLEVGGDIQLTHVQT

CO[C@@H]1O[C@H](CO)[C@H](O)[C@H](O)[C@H]1O [methyl β-D-galactoside]
Kd [1]: 8.6 ± 7.31 mM
Kd (galectin-2): 13 mM
Kd [2]: 3.3 mM
